One data set has as its system HCV replicon. Nature of the data set: HCV replicon luciferase assay. The class given is cell-based. The conditions noted are these: Hepatitis C virus, Huh-7, 72 h. As for the experimental part:
The cell lines used to evaluate compounds consist of a human hepatocyte derived cell line (Huh-7) that constitutively expresses a genotype 1b (Con-1) HCV replicon or a genotype 1b (Con-1) HCV replicon with an asparagine replacing the cysteine at amino acid 316, or a genotype 2a (JFH-1) replicon, containing a Renilla luciferase reporter gene. These cells were maintained in Dulbecco's modified Eagle medium (DMEM) containing 10% FBS, 100 U/mL penicillin/streptomycin and 1.0 mg/mL G418.
To evaluate compound efficacy, titrated compounds were transferred to sterile 384-well tissue culture treated plates, and the plates were seeded with HCV replicon cells (50 μL at a density of 2.4×10^3 cells/well) in DMEM containing 4% FBS (final DMSO concentration at 0.5%). After 3 days incubation at 37° C., cells were analyzed for Renilla Luciferase activity using the EnduRen substrate (Promega cat #E6485) according to the manufacturer's directions. Briefly, the EnduRen substrate was diluted in DMEM and then added to the plates to a final concentration of 7.5 μM. The plates were incubated for at least 1 h at 37° C. then read on a Viewlux Imager (PerkinElmer) using a luminescence program. The 50% effective concentration (EC50) was calculated using the four-parameter logistic formula noted above.
Compound EC50 data is expressed as A: <100 nM; B=100-1000 nM; C>1000 nM).

Data set [1] has as its system HCV. Conditions: extended dosing of the combination regimens; cited from earlier work.
Data set [2] deals with HCV. The conditions noted are these: combination therapy; cited from earlier work.

As a reminder, the EC50 is the concentration needed to bring the measured effect to its halfway point. A high value points to a less potent agent. Compound `CCN(CC)c1cc2oc(-c3ccc(F)cc3)c(C(=O)NC)c2cc1-c1cccc(C(=O)N2CC(F)(F)C2)c1` [Compound 1001] returned an EC50 with HCV replicon of 45.4 nM. In the data set on HCV replicon, `CCNc1cc2oc(-c3ccc(F)cc3)c(C(=O)NC)c2cc1-c1cccc(C(=O)N2CCNC(C#N)C2)c1` (stereo not shown) [Compound 2001] gave an EC50 of 100 to 1000 nM.

The compound `CCN(c1cc2oc(-c3ccc(F)cc3)c(C(=O)NC)c2cc1-c1cccc(C(=O)N2CCN(C(=O)OC(C)(C)C)C[C@@H]2C#N)c1)S(C)(=O)=O` [Compound 3001] registered an EC50 in the data set on HCV replicon of under 100 nM. On to `CCN(c1cc2oc(-c3ccc(F)cc3)c(C(=O)NC)c2cc1-c1cccc(C(=O)N2CCN(C(=O)OC(C)(C)C)C[C@H]2C#N)c1)S(C)(=O)=O` [Compound 3002], for which the EC50 in the data set on HCV replicon is under 100 nM. Turning to `CCN(c1cc2oc(-c3ccc(F)cc3)c(C(=O)NC)c2cc1-c1cccc(C(=O)N2CCN(S(C)(=O)=O)C(C#N)C2)c1)S(C)(=O)=O` (stereo not shown) [Compound 3003], the concentration giving a half-maximal response (EC50) with HCV replicon worked out at 25.2 nM.

Compound `CNC(=O)c1c(-c2ccc(F)cc2)oc2cc(N(CCF)S(C)(=O)=O)c(-c3cccc(C(=O)N4CCN(C(=O)C(F)(F)F)CC4)c3)cc12` [Compound 4001] displayed a concentration giving a half-maximal response (EC50) in the data set on HCV replicon of over 1000 nM. `CNC(=O)c1c(-c2ccc(F)cc2)oc2cc(N(CCF)S(C)(=O)=O)c(-c3cccc(C(=O)N4CCN(C5CC5)CC4)c3)cc12` [Compound 4002] showed a concentration for a half-maximal effect (EC50) in the data set with HCV replicon of under 100 nM. In the data set on HCV replicon, `CNC(=O)c1c(-c2ccc(F)cc2)oc2cc(N(CCF)S(C)(=O)=O)c(-c3cccc(C(=O)N4CCN(c5ncccn5)CC4)c3)cc12` [Compound 4003] came in with a 50% effective concentration (EC50) of under 100 nM. Compound `CNC(=O)c1c(-c2ccc(F)cc2)oc2cc(N(CCF)S(C)(=O)=O)c(-c3cccc(C(=O)N4CCN(C(=O)N5CCOCC5)CC4)c3)cc12` [Compound 4004] gave an EC50 in the data set with HCV replicon of 1690 nM. `CNC(=O)c1c(-c2ccc(F)cc2)oc2cc(N(CCF)S(C)(=O)=O)c(-c3cccc(C(=O)N4CCN(C(=O)OC(C)(C)C)CC4CC(=O)OC)c3)cc12` (stereo not shown) [Compound 4005] had an EC50 in the data set on HCV replicon of under 100 nM. Regarding `CNC(=O)c1c(-c2ccc(F)cc2)oc2cc(N(CCF)S(C)(=O)=O)c(-c3cccc(C(=O)N4CCN(/C(=N/C#N)c5ccccc5)CC4)c3)cc12` [Compound 4006], the EC50 with HCV replicon was 100 to 1000 nM. In the case of `CNC(=O)c1c(-c2ccc(F)cc2)oc2cc(N(CCF)S(C)(=O)=O)c(-c3cccc(C(=O)N4CCN(C(=C(C#N)C#N)c5ccccc5)CC4)c3)cc12` [Compound 4007], in the data set on HCV replicon, the EC50 was under 100 nM.

As for `CNC(=O)c1c(-c2ccc(F)cc2)oc2cc(N(CCF)S(C)(=O)=O)c(-c3cccc(C(=O)N4CCN(c5nnnn5-c5ccccc5)CC4)c3)cc12` [Compound 4008], the 50% effective concentration (EC50) in the data set on HCV replicon is 107 nM. With `CNC(=O)c1c(-c2ccc(F)cc2)oc2cc(N(CCF)S(C)(=O)=O)c(-c3cccc(C(=O)N4CCN(c5nnnn5-c5ccccc5)C[C@@H]4C)c3)cc12` [Compound 4009], the EC50 with HCV replicon is under 100 nM. As to `CNC(=O)c1c(-c2ccc(F)cc2)oc2cc(N(CCF)S(C)(=O)=O)c(-c3cccc(C(=O)N4CCN(c5nnnn5-c5ccccc5)[C@H](C)C4)c3)cc12` [Compound 4010], the EC50 with HCV replicon was under 100 nM.

Take `CNC(=O)c1c(-c2ccc(F)cc2)oc2cc(N(CCF)S(C)(=O)=O)c(-c3cccc(C(=O)N4CCC(=C(c5ccccc5)c5ccccc5)CC4)c3)cc12` [Compound 4011]: the EC50 in the data set with HCV replicon was under 100 nM. In turn, `CNC(=O)c1c(-c2ccc(F)cc2)oc2cc(N(CCF)S(C)(=O)=O)c(-c3cccc(C(=O)N4CCC(=C(c5ccccc5)c5nnc(C)o5)CC4)c3)cc12` [Compound 4012] registered an EC50 in the data set with HCV replicon of 27.1 nM. In the data set with HCV replicon, `CNC(=O)c1c(-c2ccc(F)cc2)oc2cc(N(CCF)S(C)(=O)=O)c(-c3cccc(C(=O)N4CCC(=C(C#N)c5ccccc5)CC4)c3)cc12` [Compound 4013] had a concentration giving a half-maximal response (EC50) of under 100 nM. Same read-out and setting: next, `CNC(=O)c1c(-c2ccc(F)cc2)oc2cc(N(CCF)S(C)(=O)=O)c(-c3cccc(C(=O)N4CCC(=C(C#N)c5ccccn5)CC4)c3)cc12` [Compound 4014]: under 100 nM; `CNC(=O)c1c(-c2ccc(F)cc2)oc2cc(N(CCF)S(C)(=O)=O)c(-c3cccc(C(=O)N4CCCC4C(F)(F)F)c3)cc12` (stereo not shown) [Compound 4015]: under 100 nM; `CNC(=O)c1c(-c2ccc(F)cc2)oc2cc(N(CCF)S(C)(=O)=O)c(-c3cccc(C(=O)N4CCCC4c4ccc(N(C)C)cc4)c3)cc12` (stereo not shown) [Compound 4016]: 84.8 nM. `CNC(=O)c1c(-c2ccc(F)cc2)oc2cc(N(CCF)S(C)(=O)=O)c(-c3cccc(C(=O)N4CCC[C@@H]4C(N)=O)c3)cc12` [Compound 4017] displayed an EC50 with HCV replicon of over 1000 nM. As for `CNC(=O)c1c(-c2ccc(F)cc2)oc2cc(N(CCF)S(C)(=O)=O)c(-c3cccc(C(=O)N4CC(O)C[C@H]4C(=O)OCc4ccccc4)c3)cc12` (stereo partly shown) [Compound 4018], the EC50 in the data set with HCV replicon is 100 to 1000 nM. The compound `CNC(=O)c1c(-c2ccc(F)cc2)oc2cc(N(CCF)S(C)(=O)=O)c(-c3cccc(C(=O)N4CC(F)(F)C[C@H]4C(N)=O)c3)cc12` [Compound 4019] returned an EC50 with HCV replicon of over 1000 nM. In turn, `CNC(=O)c1c(-c2ccc(F)cc2)oc2cc(N(CCF)S(C)(=O)=O)c(-c3cccc(C(=O)N4CC[C@H](F)C4)c3)cc12` [Compound 4020] yielded an EC50 in the data set with HCV replicon of 45 nM. Take `CNC(=O)c1c(-c2ccc(F)cc2)oc2cc(N(CCF)S(C)(=O)=O)c(-c3cccc(C(=O)N4CC[C@@H](C#N)C4)c3)cc12` [Compound 4021]: in the data set with HCV replicon, the 50% effective concentration (EC50) is over 1000 nM. Still for that read-out and setting: next, `CNC(=O)c1c(-c2ccc(F)cc2)oc2cc(N(CCF)S(C)(=O)=O)c(-c3cccc(C(=O)N4CCC(NC(=O)OC(C)(C)C)(C(F)(F)F)C4)c3)cc12` (stereo not shown) [Compound 4022]: under 100 nM; `CNC(=O)c1c(-c2ccc(F)cc2)oc2cc(N(CCF)S(C)(=O)=O)c(-c3cccc(C(=O)N4CCCC4c4nccs4)c3)cc12` (stereo not shown) [Compound 4023]: under 100 nM; `CNC(=O)c1c(-c2ccc(F)cc2)oc2cc(N(CCF)S(C)(=O)=O)c(-c3cccc(C(=O)N4CC[C@@H](F)C4)c3)cc12` [Compound 4024]: 76.5 nM. In the data set on HCV replicon, `CNC(=O)c1c(-c2ccc(F)cc2)oc2cc(N(CCF)S(C)(=O)=O)c(-c3cccc(C(=O)N4CC(F)(F)C(F)(F)C4)c3)cc12` [Compound 4025] gave an EC50 of under 100 nM. `CNC(=O)c1c(-c2ccc(F)cc2)oc2cc(N(CCF)S(C)(=O)=O)c(-c3cccc(C(=O)N4CCNC(=O)C45CCCC5)c3)cc12` [Compound 4026] displayed an EC50 with HCV replicon of under 100 nM. Compound `CCOC(=O)CC1C(=O)NCCN1C(=O)c1cccc(-c2cc3c(C(=O)NC)c(-c4ccc(F)cc4)oc3cc2N(CCF)S(C)(=O)=O)c1` (stereo not shown) [Compound 4027] displayed an EC50 in the data set with HCV replicon of over 1000 nM.

For `CNC(=O)c1c(-c2ccc(F)cc2)oc2cc(N(CCO)S(C)(=O)=O)c(C3CC3)cc12` [HCV-796], in the data set with HCV [1], the hepatic toxicity result is “hepatic toxicity observed”.

On to alpha-interferon and ribavirin, for which the sustained efficacy in the data set with HCV [2] is given as 40 % of patients.

These data come from US10087167B2, “Benzofurans substituted with secondary benzamide as HCV inhibitors” (priority 2015, dated 2018).
